pIC50: −log10 of the molar value. Where two headings read alike, the source gives them in different places.
How the values were obtained:
[1] = biological target: T1, QuantiLum Luciferase (firefly luciferase) (Photinus pyralis, UniProt P08659); test: ATP titration of luciferase reactions with luciferin and fluoroluciferins; type: biochemical
T1 construct: purchased Promega Corporation El 70
Protocol: AU compounds except 5’-fluoroluciferin and DTT were purchased from Sigma Chemical. To some of this reagent 5 mM ATP (Amersham/Invitrogen) was added, then serially diluted by half-logs to 0.05 mM. Reactions were initiated by adding equal volumes (0.1 ml) of reagent and DMEM medium (Gibco/Invitrogen) containing 0.1% Prionex® (Pentapharm) and 1.4×10-5 mg/ml QuantiLum™ Luciferase (Promega Corporation).
For ATP titrations for 7′-fluoroluciferin, reagent was created containing 200 mM HEPES, 200 mM PIPES, 1 mM CDTA, 0.5% Tergitol NP-9, 0.03% Benzyl dodecyldimethyl ammonium bromide, 30 mM thiourea, 10 mM magnesium sulfate, and 0.15 mM 7′-fluoroluciferin. This solution was separated into 3 parts and pH of the reagents were 7.4, 7.2 and 6.7. To some of this reagent, 10 mM ATP (Amersham/Invitrogen) was added. The ATP was serially diluted by quarter-logs from 10 mM to 0.32 mM.
Reactions were initiated by adding equal volumes (0.03 ml) of reagent and DMEM medium (Gibco/Invitrogen) containing 0.1% Prionex® (Pentapharm) and 1.4×10-5 mg/ml QuantiLum™ Luciferase (Promega Corporation).
Luminescence was measured for 0.5 seconds per well using Berthold Orion luminometer.

[2] = biological target: T1, QuantiLum Luciferase (firefly luciferase); test: pH dependence of firefly luciferase signal with luciferin or 5′-fluoroluciferin; type: biochemical
Protocol: Aliquots of these solutions were then placed into tubes and buffers were added to 80 mM.
Luminescent reactions were initiated by combining 100 μl of the luciferase-containing solution and 100 μl of the luciferase detection reagents. Luminescence was integrated over 1 second per sample using the Veritas plate luminometer (Turner Bio Systems). N=3 for each result.

[3] = biological target: T1, QuantiLum Luciferase (firefly luciferase); test: Luminescence spectra of fluoroluciferins; type: biochemical; conditions: pH 7.4
Protocol: All compounds except fluoroluciferin and ATP were purchased from Sigma Chemical. ATP was purchased from Amersham/Invitrogen.
Spectra were measured using 0.5s integration with 1 nm increments on a Spex Fluorolog.

[4] = test system: porcine esterase; test: Two-step luminescent carboxylesterase assay with D-luciferin esters; type: biochemical; conditions: two step luminescent assay format
[5] = biological target: T2, S. japonica GST (Schistosoma japonicum, UniProt P08515); type: biochemical; conditions: for Light Reading: 45 min; for Raw Data light reading: S. japonica GST, 2 mM glutathione
T2 construct: purchased Sigma Chemical Company G5663
Protocol: (§1) The derivative was tested in a two step format. For the first step, the derivative was added to a mixture with one of three GSTs with or without glutathione. At different times after the reaction was initiated, a portion was removed and mixed with a luciferase reaction mixture.
(§2) S. japonica GST: 1 vial with 3 mg GST (Part G5663, Sigma Chemical Company) was dissolved in 500 μl of 10 mM BisTris, pH 6.6.
(§3) The reactions (Table 1) were assembled by first adding the water and 1 M BisTris solutions in individual 0.5 ml microfuge tubes, then adding the other components except for the GST #3 solution. Finally, the GST #3 (FIG. 12) solution was added to the reactions, the resulting solution was mixed, and the time of addition noted.
Buffer stock solutions (1 M) of BisTris at pH 6.5, HEPES, pH 7.0, 7.5 and 8.0 and Tricine pH 8.5 were prepared by dissolving solid reagent obtained from Sigma Chemical Corporation and adjusting the pH to the desired value.
The GST #3 addition was performed last and the solutions were mixed immediately after addition of GST #3. […] After mixing, the light produced by the solution was measured using a Turner TD 20/20 luminometer.
The stock of S. japonica GST used in Example IA was diluted to 1 mg/ml with 10 mM BisTris pH 6.5.
The reactions were initiated by addition of GST #3 and mixing. […]

[6] = Non-enzymatic conversion of luciferin derivative by glutathione (no GST) and buffer controls; type: biochemical; conditions: for Light Output: Table 4 reaction 1: BisTris pH 6.5, no glutathione, time post mixing in column head; for Light Reading: no enzyme, 45 min; for Glutathione Signal: glutathione alone minus buffer
Protocol: Buffer stock solutions (1 M) of BisTris at pH 6.5, HEPES, pH 7.0, 7.5 and 8.0 and Tricine pH 8.5 were prepared by dissolving solid reagent obtained from Sigma Chemical Corporation and adjusting the pH to the desired value. […]

[7] = test system: equine GST; test: Two-step luminescent GST assay with equine GST; type: biochemical; conditions: for Raw Data light reading: Equine GST, 2 mM glutathione
Protocol: as §1, §2, §3
(§4) After assembly, the enzyme stock solutions were diluted 1:10 into 10 mM HEPES, pH 7.5 and the following additions were made to the reactions.
(§5) The reactions were allowed to proceed for 30 minutes at room temperature and then 100 μl of P450 Glo reagent was added to each reaction and the light produced by the subsequent solution was measured on a Veritas luminometer.

[8] = biological target: T3, GST M1-1 (Homo sapiens, UniProt P09488, K173N); test: Luminescent GST assay with GST M1-1; type: biochemical; conditions: for Raw Data light reading: GST M1-1, 2 mM glutathione
T3 construct: purchased Sigma
T3 sequence (P09488 1-218 K173N): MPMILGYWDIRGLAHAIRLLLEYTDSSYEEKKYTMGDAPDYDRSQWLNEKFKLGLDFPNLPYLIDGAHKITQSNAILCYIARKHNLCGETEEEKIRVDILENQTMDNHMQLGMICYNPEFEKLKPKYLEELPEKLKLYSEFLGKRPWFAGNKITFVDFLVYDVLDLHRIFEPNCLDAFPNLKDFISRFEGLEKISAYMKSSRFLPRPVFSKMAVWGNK

[9] = Control without MAO: fluorescence of the fluorogenic derivative (MAO substituted with H2O)
Protocol: The fluorescent signal was then measured (excitation/emission=355/460 nm) on a Fluoroskan Ascent plate fluorometer.
This 90 μl contained 35 μl 200 mM Tricine pH 8.3, 35 μl 200 mM Tricine pH 8.7 (or water), 10 μl 200 mM MgSO4, and 10 μl of each substrate dilution.

[10] = biological target: T4, CYP2D6 (Homo sapiens, UniProt P10635); test: CYP2D6 inhibition assay with luciferin-6-methylether ethylene glycol ester; type: biochemical; conditions: substrate luciferin-6-methylether ethylene glycol ester
T4 construct: purchased Discovery Labware (BD/Gentest); host or cells: insect cell expression system (membrane fractions)

[11] = biological target: GST A1-1 (Homo sapiens, UniProt P08263); conditions: for Raw Data light reading: GST A1-1, 2 mM glutathione
Protocol: Enzyme and glutathione stock solutions are described in Example IA.
as §4
GST A1-1 (Sigma) is an enzyme found in a few body tissues, including kidney, intestine, lung and liver. GST M1-1 (Sigma) is a type b allelic variant, which corresponds to GST psi purified from human liver.
as §5

T1 sequence (P08659 whole entry): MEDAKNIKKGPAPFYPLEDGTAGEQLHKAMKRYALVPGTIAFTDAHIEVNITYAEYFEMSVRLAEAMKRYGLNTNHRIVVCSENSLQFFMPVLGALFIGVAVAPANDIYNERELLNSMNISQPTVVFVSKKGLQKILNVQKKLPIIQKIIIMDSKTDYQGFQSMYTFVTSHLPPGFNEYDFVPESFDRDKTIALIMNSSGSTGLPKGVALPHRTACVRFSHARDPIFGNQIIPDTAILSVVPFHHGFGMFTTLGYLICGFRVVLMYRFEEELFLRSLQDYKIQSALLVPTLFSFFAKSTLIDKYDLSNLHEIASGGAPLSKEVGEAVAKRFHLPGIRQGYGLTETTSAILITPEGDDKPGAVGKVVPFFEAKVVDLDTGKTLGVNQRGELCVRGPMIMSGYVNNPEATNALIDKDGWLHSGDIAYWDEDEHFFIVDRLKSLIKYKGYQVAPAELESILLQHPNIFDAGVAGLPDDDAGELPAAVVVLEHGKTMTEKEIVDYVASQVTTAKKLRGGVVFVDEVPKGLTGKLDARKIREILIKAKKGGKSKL
T4 sequence (P10635 whole entry): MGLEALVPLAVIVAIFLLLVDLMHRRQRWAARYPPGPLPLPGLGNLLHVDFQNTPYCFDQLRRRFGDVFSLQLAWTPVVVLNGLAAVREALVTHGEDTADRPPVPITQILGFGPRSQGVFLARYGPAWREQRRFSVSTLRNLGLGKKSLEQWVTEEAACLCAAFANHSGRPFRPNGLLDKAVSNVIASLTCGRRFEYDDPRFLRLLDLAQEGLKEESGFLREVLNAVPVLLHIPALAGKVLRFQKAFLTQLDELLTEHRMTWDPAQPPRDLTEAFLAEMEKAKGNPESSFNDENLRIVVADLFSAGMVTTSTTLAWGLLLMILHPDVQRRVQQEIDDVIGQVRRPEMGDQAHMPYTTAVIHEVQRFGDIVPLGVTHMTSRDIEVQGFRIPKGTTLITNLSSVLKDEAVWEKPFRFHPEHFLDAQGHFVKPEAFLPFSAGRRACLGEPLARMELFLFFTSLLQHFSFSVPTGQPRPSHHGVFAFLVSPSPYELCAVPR
Chain of GST A1-1 (P08263 whole entry): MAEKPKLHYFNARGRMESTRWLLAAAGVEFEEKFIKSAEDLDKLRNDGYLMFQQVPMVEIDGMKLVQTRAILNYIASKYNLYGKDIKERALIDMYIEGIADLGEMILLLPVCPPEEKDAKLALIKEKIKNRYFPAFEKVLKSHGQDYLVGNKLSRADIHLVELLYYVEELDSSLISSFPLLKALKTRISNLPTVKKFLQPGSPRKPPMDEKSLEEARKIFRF
T2 sequence (P08515 whole entry): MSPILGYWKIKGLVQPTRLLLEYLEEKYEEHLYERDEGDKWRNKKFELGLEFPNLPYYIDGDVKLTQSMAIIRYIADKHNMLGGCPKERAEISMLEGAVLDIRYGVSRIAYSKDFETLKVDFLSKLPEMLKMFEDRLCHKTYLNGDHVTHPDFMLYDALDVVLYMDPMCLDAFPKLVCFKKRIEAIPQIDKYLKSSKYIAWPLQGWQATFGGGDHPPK

## O=C(O)[C@H]1CSC(c2nc3cc(F)c(O)cc3s2)=N1 [5′-fluoroluciferin]
[1]
  ATP requirement of luciferase reaction: saturated with ATP at a higher concentration than the reaction using luciferin
[2]; pH 6.900, MOPS
  Relative Luminescence (% of 8.3 Luciferin): 19%
[2]; pH 7.133, MOPS
  Relative Luminescence (% of 8.3 Luciferin): 22%
[2]; pH 7.296, MOPS
  Relative Luminescence (% of 8.3 Luciferin): 23%
[2]; pH 7.303, HEPES
  Relative Luminescence (% of 8.3 Luciferin): 22%
[2]; pH 7.499, MOPS
  Relative Luminescence (% of 8.3 Luciferin): 23%
[2]; pH 7.521, HEPES
  Relative Luminescence (% of 8.3 Luciferin): 25%
[2]; pH 7.673, Tricine
  Relative Luminescence (% of 8.3 Luciferin): 24%
[2]; pH 7.720, HEPES
  Relative Luminescence (% of 8.3 Luciferin): 27%
[2]; pH 7.883, Tricine
  Relative Luminescence (% of 8.3 Luciferin): 24%
[2]; pH 7.892, HEPES
  Relative Luminescence (% of 8.3 Luciferin): 26%
[2]; pH 8.100, Tricine
  Relative Luminescence (% of 8.3 Luciferin): 24%
[2]; pH 8.327, Tricine
  Relative Luminescence (% of 8.3 Luciferin): 22%
[3]
  blue shift of luminescence λmax from regular luciferin: approximately 25 nm
[3]; listed as 5′ fluoroluciferin
  blue shift of luminescence λmax from regular luciferin: about 10 nm

## CCOC(=O)[C@H]1CSC(c2nc3ccc(O)cc3s2)=N1 [D-luciferin ethyl ester]
[4]
  carboxylesterase substrate: effective in this format

## COC(=O)[C@H]1CSC(c2nc3ccc(O)cc3s2)=N1 [D-luciferin methyl ester]
[4]
  carboxylesterase substrate: effective in this format

## O=C(OCc1cccnc1)[C@H]1CSC(c2nc3ccc(O)cc3s2)=N1 [D-luciferin picolinyl ester]
[4]
  carboxylesterase substrate: effective in this format

## O=C(O)[C@H]1CSC(c2ccc3cc(Oc4ccc(C(F)(F)F)cc4[N+](=O)[O-])ccc3n2)=N1 [GST #3, 6-(2-nitro-4-trifluoromethyl-phenoxy)quinolinyl-luciferin]
[5]; reaction 2: pH 7.5, 50 μl 10 mM GSH, 10 μl S. japonica GST
  Light Reading: 61.58
[5]; reaction 4: pH 7.5, 30 μl 10 mM GSH, enzyme
  Light Reading: 55.18
[5]; reaction 6: pH 7.5, 10 μl 10 mM GSH, enzyme
  Light Reading: 52.23
[5]; reaction 8: pH 8.0, 50 μl 10 mM GSH, enzyme
  Light Reading: 152.3
[5]; reaction 10: pH 8.0, 30 μl 10 mM GSH, enzyme
  Light Reading: 135.6
[5]; reaction 12: pH 8.0, 10 μl 10 mM GSH, enzyme
  Light Reading: 97.47
[5]; reaction 14: pH 8.5, 50 μl 10 mM GSH, enzyme
  Light Reading: 532.4
[5]; reaction 16: pH 8.5, 30 μl 10 mM GSH, enzyme
  Light Reading: 416.7
[5]; reaction 18: pH 8.5, 10 μl 10 mM GSH, enzyme
  Light Reading: 267.3
[6]; 20 minutes after mixing
  Light Output: 0.976
[6]; 40 minutes after mixing
  Light Output: 1.099
[6]; at time of mixing
  Light Output: 1.01
[6]; Table 6 reaction 1: pH 7.5, 50 μl 10 mM GSH
  Light Reading: 26.3
[6]; reaction 3: pH 7.5, 30 μl 10 mM GSH
  Light Reading: 19.21
[6]; reaction 5: pH 7.5, 10 μl 10 mM GSH
  Light Reading: 10.73
[6]; reaction 7: pH 8.0, 50 μl 10 mM GSH
  Light Reading: 65.98
[6]; reaction 9: pH 8.0, 30 μl 10 mM GSH
  Light Reading: 48.41
[6]; reaction 11: pH 8.0, 10 μl 10 mM GSH
  Light Reading: 22.52
[6]; reaction 13: pH 8.5, 50 μl 10 mM GSH
  Light Reading: 295.2
[6]; reaction 15: pH 8.5, 30 μl 10 mM GSH
  Light Reading: 199.4
[6]; reaction 17: pH 8.5, 10 μl 10 mM GSH
  Light Reading: 97.89
[7]; light generating reaction
  GST preference: better substrate for equine GST in a light generating reaction than GST M1-1 and GST A1-1

## COC(=O)[C@H]1CSC(c2ccc3cc(Oc4ccc(C(F)(F)F)cc4[N+](=O)[O-])ccc3n2)=N1 [GST-4, Methyl 6-(2-nitro-4-trifluoromethyl-phenoxy)quinolinyl-luciferin ester]
[8]; light generating reaction
  GST preference: better substrate for GST M1-1 in a light generating reaction than GST A1-1

## CNCCCOc1ccc2c(C)cc(=O)oc2c1 [MAO-F3, 7-(4-methyl-3-N-methylaminopropoxy)coumarin]
[9]; [MAO-F3] 0.21 μM
  no MAO fluorescent signal: 48
[9]; [MAO-F3] 863.75 μM
  no MAO fluorescent signal: 6461

## CC(NC(C)(C)C)C(=O)c1cccc(Cl)c1 (centres unmarked) [bupropion]
[10]
  pIC50: 4.48

## Clc1ccccc1C(c1ccccc1)(c1ccccc1)n1ccnc1 [clotrimazole]
[10]
  pIC50: 4.65

## CC(C)N(CCC(C(N)=O)(c1ccccc1)c1ccccn1)C(C)C (centres unmarked) [disopyramide]
[10]
  pIC50: 3.66

## Acetyl Luciferin
[5]; Net 2 mM AL
  Net Enzyme Signal: 91,082
[5]; Net 20 mM AL
  Net Enzyme Signal: 902,203
[5]; 2 mM AL
  Raw Data light reading: 126,288
[5]; 20 mM AL
  Raw Data light reading: 1,233,119
[6]; 2 mM AL
  Glutathione Signal: 14,557
[6]; 20 mM AL
  Glutathione Signal: 147,064
[6]; Buffer Alone, 2 mM AL, pH 7.5, 30 min
  Raw Data light reading: 20,649
[6]; Buffer Alone, 20 mM AL, pH 7.5, 30 min
  Raw Data light reading: 183,852
[6]; Glutathione Alone (2 mM), 2 mM AL
  Raw Data light reading: 35,206
[6]; Glutathione Alone (2 mM), 20 mM AL
  Raw Data light reading: 330,916
[11]; 2 mM AL
  Raw Data light reading: 42,725
[11]; 20 mM AL
  Raw Data light reading: 365,770
[11]; Net 2 mM AL
  Net Enzyme Signal: 7,519
[11]; Net 20 mM AL
  Net Enzyme Signal: 34,854
[8]; 2 mM AL
  Raw Data light reading: 42,867
[8]; 20 mM AL
  Raw Data light reading: 419,400
[8]; Net 2 mM AL
  Net Enzyme Signal: 7,661
[8]; Net 20 mM AL
  Net Enzyme Signal: 88,484
[7]; 2 mM AL
  Raw Data light reading: 39,036
[7]; 20 mM AL
  Raw Data light reading: 361,356
[7]; Net 2 mM AL
  Net Enzyme Signal: 3,830
[7]; Net 20 mM AL
  Net Enzyme Signal: 30,440

Reference: patent US10745365B2, “Luminogenic and fluorogenic compounds and methods to detect molecules or conditions” (Promega Corporation, priority 2005, dated 2020)
